Read-outs that look alike come from different tables or passages of the source.
Legend:
Format in all cases: in vivo
Alternaria solani = test: Alternaria test (tomatoes)/preventive; details: for pest or weed control at 20 ppm: application rate 20 ppm a.i.; for pest or weed control at 25 ppm: application rate 25 ppm a.i.; for pest or weed control at 100 ppm: application rate 100 ppm a.i.
Description: (§1) A synergistic effect of fungicides is always present when the fungicidal activity of the active compound combinations exceeds the total of the activities of the active compounds when applied individually. The expected activity for a given combination of two active compounds can be calculated as follows (cf. Colby, S. R., “Calculating Synergistic and Antagonistic Responses of Herbicide Combinations”, Weeds 1967, 15, 20-22):
(§2) If • X is the efficacy when active compound A is applied at an application rate of m ppm (or g/ha), • Y is the efficacy when active compound B is applied at an application rate of n ppm (or g/ha), • E is the efficacy when the active compounds A and B are applied at application rates of m and n ppm (or g/ha), respectively, and
Alternaria Test (Tomatoes)/Preventive • Solvent: 24.5 parts by weight of acetone • 24.5 parts by weight of dimethylacetamide • Emulsifier: 1 part by weight of alkylaryl polyglycol ether
(§3) To produce a suitable preparation of active compound, 1 part by weight of active compound is mixed with the stated amounts of solvent and emulsifier, and the concentrate is diluted with water to the desired concentration.
(§4) To test for preventive activity, young plants are sprayed with the preparation of active compound at the stated rate of application. After the spray coating has dried on, the plants are inoculated with an aqueous spore suspension of Alternaria solani. The plants are then placed in an incubation cabinet at approximately 20° C. and a relative atmospheric humidity of 100%.
The test is evaluated 3 days after the inoculation. 0% means an efficacy which corresponds to that of the untreated control while an efficacy of 100% means that no disease is observed.

Sphaerotheca fuliginea = test: Sphaerotheca test (cucumbers)/preventive
Description: as §1, §2
Sphaerotheca Test (Cucumbers)/Preventive • Solvent: 24.5 parts by weight of acetone • 24.5 parts by weight of dimethylacetamide • Emulsifier: 1 part by weight of alkylaryl polyglycol ether
as §3
as §4, with “Sphaerotheca fuliginea.” for “Alternaria solani.”, “a greenhouse” for “an incubation cabinet”, “23°” for “20°”, “approximately 70%.” for “100%.”
The test is evaluated 7 days after the inoculation. 0% means an efficacy which corresponds to that of the untreated control, while an efficacy of 100% means that no disease is observed.

Venturia inaequalis = test: Venturia test (apples)/preventive; details: for pest or weed control at 4 ppm: application rate 4 ppm a.i.; for pest or weed control at 2 ppm: application rate 2 ppm a.i.; for pest or weed control at 100 ppm: application rate 100 ppm a.i.
Description: as §1, §2
Venturia test (apples)/preventive • Solvent: 24.5 parts by weight of acetone • 24.5 parts by weight of dimethylacetamide • Emulsifier: 1 part by weight of alkylaryl polyglycol ether
as §3
as §4, with “conidia” for “spore”, “the causal agent of apple scab (Venturia inaequalis) and” for “Alternaria solani. The plants are”, “remain for 1 day” for “placed”
The plants are then placed in a greenhouse at approximately 21° C. and a relative atmospheric humidity of approximately 90%.
The test is evaluated 10 days after the inoculation. 0% means an efficacy which corresponds to that of the untreated control, while an efficacy of 100% means that no disease is observed.

Phytophthora infestans = test: whole plant or invertebrate; details: for pest or weed control at 2.5 ppm / Efficacy in % found: application rate 2.5 ppm a.i.; for pest or weed control at 0.0025 ppm: application rate 0.0025 ppm a.i.; for pest or weed control at 0.005 ppm: application rate 0.005 ppm a.i.; for pest or weed control at 0.01 ppm: application rate 0.01 ppm a.i.
[1] = Alternaria solani, 72 h, Table 2, read-out: Efficacy in % found
[2] = Table 7, application rate 4 ppm a.i.
[3] = Venturia inaequalis, 240 h, Table 10, read-out: Efficacy in % found
[4] = Phytophthora infestans, 72 h, read-out: Efficacy in % found, Table 5
[5] = Table 9, application rate 50 ppm a.i.
[6] = Alternaria solani, 72 h, Table 1, read-out: Efficacy in % found
[7] = Phytophthora infestans, 72 h, read-out: Efficacy in % found, Table 3
[8] = Phytophthora infestans, 72 h, read-out: Efficacy in % found, Table 4
[9] = Phytophthora infestans, 72 h, read-out: Efficacy in % found, Table 6
[10] = Table 7, application rate 100 ppm a.i.
[11] = Venturia inaequalis, 240 h, Table 10, application rate 50 ppm a.i., read-out: Efficacy in % found
[12] = Venturia inaequalis, 240 h, Table 11, application rate 50 ppm a.i., read-out: Efficacy in % found
[13] = Venturia inaequalis, 240 h, Table 11, read-out: Efficacy in % found
[14] = Venturia inaequalis, 240 h, Table 12, read-out: Efficacy in % found
[15] = Venturia inaequalis, 240 h, Table 13, read-out: Efficacy in % found

Cc1cc(C)nc(Nc2ccccc2)n1 [7.7, pyrimethanil]
pest or weed control at 20 ppm (Alternaria solani; [1]): 32%

O=C(NCCc1ncc(C(F)(F)F)cc1Cl)c1ccccc1C(F)(F)F [2.6, fluopyram]
pest or weed control at 1 ppm (Alternaria solani; Alternaria solani, 72 h, Table 1, application rate 1 ppm a.i., read-out: Efficacy in % found): 48%
Efficacy in % found (Sphaerotheca fuliginea; [2]): 19%
pest or weed control at 4 ppm (Venturia inaequalis; [3]): 21%

COC(c1ccc(Cl)cc1Cl)C(C)NC(=O)c1cn(C)nc1C(F)F (stereo not shown) [2.27, N-[1-(2,4-dichlorophenyl)-1-methoxypropan-2-yl]-3-(difluoromethyl)-1-methyl-1H-pyrazole-4-carboxamide]
pest or weed control at 2.5 ppm (Phytophthora infestans; [4]): 0%
pest or weed control at 10 ppm (Phytophthora infestans; Phytophthora infestans, 72 h, read-out: Efficacy in % found, Table 5, application rate 10 ppm a.i.): 8%
Efficacy in % found (Sphaerotheca fuliginea; [2]): 81%
pest or weed control at 2 ppm (Venturia inaequalis; [3]): 31%
pest or weed control at 4 ppm (Venturia inaequalis; [3]): 93%

CC(C)CC(C)c1sccc1NC(=O)c1cn(C)nc1C(F)(F)F (stereo not shown) [2.21, penthiopyrad]
pest or weed control at 0.5 ppm (Alternaria solani; Alternaria solani, 72 h, Table 1, application rate 0.5 ppm a.i., read-out: Efficacy in % found): 39%
pest or weed control at 2.5 ppm (Phytophthora infestans; [4]): 0%
pest or weed control at 2 ppm (Venturia inaequalis; [3]): 8%

[Cl-].[Cu+2].[Cu+2].[OH-].[OH-].[OH-] [5.8, copper oxychloride]
Efficacy in % found (Phytophthora infestans; Table 6): 0%
Efficacy in % found (Sphaerotheca fuliginea; [5]): 10%
Efficacy in % found (Venturia inaequalis; Table 13, application rate 50 ppm a.i.): 8%

Cn1cc(C(=O)Nc2ccccc2-c2cc(F)c(F)c(F)c2)c(C(F)F)n1 [2.8, fluxapyroxad]
Efficacy in % found (Phytophthora infestans; Table 5): 0%
Efficacy in % found (Sphaerotheca fuliginea; Table 7, application rate 1 ppm a.i.): 38%
Efficacy in % found (Venturia inaequalis; Table 10, application rate 0.5 ppm a.i.): 25%

[Cu+2].[OH-].[OH-] [5.5, copper hydroxide]
Efficacy in % found (Phytophthora infestans; Table 6): 18%
Efficacy in % found (Sphaerotheca fuliginea; Table 9, application rate 10 ppm a.i.): 29%
Efficacy in % found (Venturia inaequalis; Table 13, application rate 20 ppm a.i.): 25%

CS(=O)(=O)Oc1cccc(Cl)c1C1CC(c2csc(C3CCN(C(=O)Cn4nc(C(F)F)cc4C(F)F)CC3)n2)=NO1 (stereo not shown) [(I-3), 2-{3-[2-(1-{[3,5-bis(difluoromethyl)-1H-pyrazol-1-yl]acetyl}piperidin-4-yl)-1,3-thiazol-4-yl]-4,5-dihydro-1,2-oxazol-5-yl}-3-chlorophenyl methanesulfonate]
pest or weed control at 25 ppm (Alternaria solani; [6]): 0%
pest or weed control at 25 ppm (Alternaria solani; [1]): 30%
pest or weed control at 100 ppm (Alternaria solani; [1]): 36%
pest or weed control at 0.0025 ppm (Phytophthora infestans; [7]): 65%
pest or weed control at 0.005 ppm (Phytophthora infestans; [8]): 5%
pest or weed control at 0.01 ppm (Phytophthora infestans; [8]): 28%
pest or weed control at 0.0025 ppm (Phytophthora infestans; [4]): 59%
pest or weed control at 0.01 ppm (Phytophthora infestans; [4]): 87%
pest or weed control at 0.0025 ppm (Phytophthora infestans; [9]): 79%
Efficacy in % found (Sphaerotheca fuliginea; [10]): 43%
Efficacy in % found (Sphaerotheca fuliginea; Table 8, application rate 50 ppm a.i.): 19%
Efficacy in % found (Sphaerotheca fuliginea; [5]): 29%
pest or weed control at 50 ppm (Venturia inaequalis; [11]): 0%
pest or weed control at 100 ppm (Venturia inaequalis; [3]): 0%
pest or weed control at 50 ppm (Venturia inaequalis; [12]): 0%
pest or weed control at 100 ppm (Venturia inaequalis; [13]): 15%
pest or weed control at 100 ppm (Venturia inaequalis; [14]): 0%
pest or weed control at 100 ppm (Venturia inaequalis; [15]): 0%

N#Cc1c(Cl)c(Cl)c(Cl)c(C#N)c1Cl [5.4, chlorothalonil]
pest or weed control at 20 ppm (Alternaria solani; [1]): 5%
pest or weed control at 20 ppm (Venturia inaequalis; Venturia inaequalis, 240 h, Table 12, application rate 20 ppm a.i., read-out: Efficacy in % found): 14%

CS(=O)(=O)Oc1ccccc1C1CC(c2csc(C3CCN(C(=O)Cn4nc(C(F)F)cc4C(F)F)CC3)n2)=NO1 (stereo not shown) [(I-1), 2-{3-[2-(1-{[3,5-bis(difluoromethyl)-1H-pyrazol-1-yl]acetyl}piperidin-4-yl)-1,3-thiazol-4-yl]-4,5-dihydro-1,2-oxazol-5-yl}phenyl methanesulfonate]
pest or weed control at 25 ppm (Alternaria solani; [6]): 20%
pest or weed control at 100 ppm (Alternaria solani; [1]): 34%
pest or weed control at 0.005 ppm (Phytophthora infestans; [7]): 82%
pest or weed control at 0.005 ppm (Phytophthora infestans; [8]): 67%
pest or weed control at 0.01 ppm (Phytophthora infestans; [8]): 77%
pest or weed control at 0.0025 ppm (Phytophthora infestans; [4]): 52%
pest or weed control at 0.0025 ppm (Phytophthora infestans; [9]): 48%
Efficacy in % found (Sphaerotheca fuliginea; [10]): 19%
Efficacy in % found (Sphaerotheca fuliginea; Table 8, application rate 100 ppm a.i.): 0%
Efficacy in % found (Sphaerotheca fuliginea; Table 9, application rate 100 ppm a.i.): 38%
pest or weed control at 50 ppm (Venturia inaequalis; [11]): 0%
pest or weed control at 100 ppm (Venturia inaequalis; [3]): 0%
pest or weed control at 50 ppm (Venturia inaequalis; [12]): 4%
pest or weed control at 100 ppm (Venturia inaequalis; [13]): 13%
pest or weed control at 100 ppm (Venturia inaequalis; [14]): 21%
pest or weed control at 100 ppm (Venturia inaequalis; [15]): 0%

Cn1c(=O)c2sc3c(=O)n(C)c(=O)c3sc2c1=O [15.60, 2,6-dimethyl-1H,5H-[1,4]dithiino[2,3-c:5,6-c′]dipyrrole-1,3,5,7(2H,6H)-tetrone]
pest or weed control at 50 ppm (Alternaria solani; Alternaria solani, 72 h, Table 2, application rate 50 ppm a.i., read-out: Efficacy in % found): 32%
pest or weed control at 50 ppm (Venturia inaequalis; Venturia inaequalis, 240 h, Table 12, application rate 50 ppm a.i., read-out: Efficacy in % found): 24%

propineb [5.29]
Efficacy in % found (Alternaria solani; Table 2, application rate 5 ppm a.i.): 0%

O=C1c2ccccc2C(=O)N1SC(Cl)(Cl)Cl [5.16, folpet]
pest or weed control at 10 ppm (Alternaria solani; Alternaria solani, 72 h, Table 2, application rate 10 ppm a.i., read-out: Efficacy in % found): 0%

— patent publication US12102087B2 (priority 2012, dated 2024)
